From publication PMC4914250, “Cancer therapeutic approach based on conformational stabilization of mutant p53 protein by small peptides” (Oncotarget, 2016)

Columns and labels:
[1] = test system: mutp53 in BT549 cell extract; assay: ELISA of mutp53 conformation, BT549; assay type: biochemical, human; details: score 0-6 compared to positive control
From the text: (§1) A total of close to 350 peptides, deduced from the phage sequences, were synthesized and subjected to several alternative complementary methods of semi high-throughput functional screening; we refer to these peptides as pCAPs (p53 conformation activating peptides). First, we used cell-free ELISA assays to evaluate the effect of individual peptides on mutp53 conformation and DNA binding in vitro. For conformation analysis (Figure 2A), microtiter plates were coated with PAb240, PAb1620 or PAb421 as control, then the effect of each peptide on reactivity of mutp53 with these antibodies was examined; WTp53 served as a positive control for PAb1620 reactivity.
(§2) 96-well plates were coated using 3 different anti p53 monoclonal antibodies, PAb421, PAb240 and PAb1620. Wells were incubated overnight (ON) with 100μl Ab (5μg/ml) in room temp (RT). The liquid was discarded, and the wells were washed 3 times with PBS, 200 μl. Next, blocking with 5% BSA in PBS for 2 hours (RT) was performed, followed by 3 washes in PBS. Samples of mutant and WT p53 proteins (100 μl, 10 μg/ml), together with control peptides or with test peptides 1-326 (5μg /ml), were incubated for 1.5 hours, and then added to the wells for1 hour at RT. 4 washes with PBST were performed. Next, HRP conjugated αp53 antibody (10μg/ml HAF1355 (R&D)) were added to the wells and incubated at RT for 1 hour. Plates were washed 3 times in PBST and TMB substrate solution (50μl each well, Thermo, (Cat. No. ES001-1L-K)) was added and incubated at 37°C for 20 min. The reaction was stopped with 2M Sulfuric acid (50μl). The absorbance was measured at 450 nm with a spectrophotometer. Protein concentration was determined by dividing the absorb an each sample to by the absorbance of PAb421 samples.

[2] = test system: mutp53 in SK3 cell extract; assay: ELISA of mutp53 conformation, SK3; assay type: biochemical, human; details: score 0-6 compared to positive control
From the text: as §1, §2

[3] = test system: p53 target genes in ES2 cells; assay: Induction of p53 target genes by qRT-PCR, ES2; assay type: cell-based, human; details: for expression of the p53 target genes, ES2: peptide 5ug/ml, 18 hours, ES2 versus ES2 p53KO; for PCR ES2: score 0-6 compared to positive control, induction of p53 target genes by qRT-PCR
Experimental: Since p53 works primarily as a transcription factor, we tested the ability of lead peptides to induce p53 target gene activation. To that end we used H1299-tsp53^V135A cells, which express temperature sensitive (ts) p53 and allow examination of WT and mutant p53 states in the same cellular background. In the representative experiment shown in Figure 3A, cells were exposed to the indicated peptides (5μg/ml) and then either transferred to 32°C or placed back at 37°C. Cells were harvested 18 hours later, and mRNA was extracted and subjected to qRT-PCR analysis. Expression levels of 3 representative p53 target genes, p21, PUMA and Mdm2, were examined. Values were normalized to non-treated cells at 37°C, and expression at 32°C, where the ts-p53 is in a WT conformation, served as positive control. […] A similar analysis was performed on ES2 ovarian cancer cells, expressing endogenous mp53^S241F, compared to ES2 p53KO cells (Figure 3B).
Figure 3 Peptides binding to p53 and their effect on the expression of p53 target genes A. - Bar graph illustrating the effect of selected peptides on activation of mutp53 by measuring transactivation of p53 target genes as determined by qRT-PCR. H1299 cells stably transfected with mutp53 (ts) A135V were used. The indicated peptides were added directly to the medium at a concentration of 5ug/ml and cells were then either moved to 32°C or returned to 37°C. 18 hours later cells were harvested, extracted for RNA, cDNA was synthesis subjected to qrt time PCR analysis. The expression level of 3 representative p53 target genes, p21, PUMA and Mdm2, were examined. The figure illustrates the relative fold induction of transcription of the cells treated with the selected peptides as compared to non-treated cells. B. - Bar graph illustrating the effect of selected peptides on activation of mutp53 by measuring transactivation of p53 target genes as determined by qRT-PCR. ES2and ES2-p53KO cells were treated with indicated peptides 5ug/ml, for 18 hours. Cells were harvested, and cDNA was subjected to qRT-PCR analysis. Expression of 4 representative p53 target genes, p21, PUMA, Mdm2 and CD95, was examined. The figure illustrates the relative fold induction of transcription in cells treated with the selected peptides compared to non-treated cells. C. - Binding of mutp53 to promoters of representative p53 target genes in live cells, assessed by chromatin immunoprecipitation. BT-549 breast cancer cells endogenously expressing mutant p53^R249S were treated for 5 hours with a mix of 3 pCAPs - 250, 242 and 325. Cells treated with a mix of inert peptides served as a negative control. DNA cross-linked p53 was immunoprecipitated, and binding to the p53 responsive elements of the PUMA, p21, CD95 and MDM2 gene promoters was quantified by qPCR. Results were normalized to input total DNA. Cell extracts immunoprecipitated with beads without antibody (beads) served as negative controls. A genomic segment containing no p53RE served as negative control (white and gray bars). D. - ELISA analysis of the binding of WTp53 and mutp53 to lead peptides. Peptides were conjugated to the bottoms of the wells of 96 well plates, employing a commercial conjugation kit (TAKARA). Control wells were coated with the αp53 monoclonal antibodies PAb1801, PAb1620 and PAb240. Recombinant WTp53 or mutp53R175H was added to the wells and incubated with the bound peptides or antibodies. Where indicated, soluble peptides were added as competitors (+ comp), to confirm the specificity of the binding to p53. pCAP-76 served as a negative control peptide. After removal of recombinant protein, plates were washed and incubated with αp53-HRP followed by TMB and optical density determination. Results are presented as relative absorbance at 450nm. […] See Materials and Methods for details.
Figure 4 Peptides trigger apoptosis in correlation to activation of WTp53 target genes A., C. - Apoptosis of ES2 cells treated with peptides. […]

WI38 = assay: Crystal violet viability assay, WI38; assay type: cell-based; set-up: key: score 0- no effect-white; score 6- as or more effective than positive control- black; details: score 0-6 compared to positive control, 48 h
Experimental: Cells were cultured in 96 wells plates with 2500-4000 cells/well. Serial dilutions of different peptides were added and the plates incubated for additional 48 h at 37°C. Then medium was removed and cell viability was determined by staining the cells with crystal violet (0.05%) in methanol/PBS (1:5, v/v), for 10 min, followed by 3 washes with PBS. 10% acetic acid was added to each well for 10 min. OD was determined at 595 nm.

| Substance | Conform BT549 [1] | Conform SK3 [2] | expression of the p53 target genes, ES2 [3] | PCR ES2 [3] | Viability WI38 (WI38) |
| --- | --- | --- | --- | --- | --- |
| LRCLLLLIGRVGRRRRRRRR [pCAP-24R, pCAP-24 with poly arginine tail] | 2 | 2 | significant increase | 4 | – |
| myr-RRKILFIRLMHNKH [pCAP-227, myristoylated peptide, similarity to GAS2] | 4 | 1 | – | 5 | 3 |
| EVTFRHSVV [pCAP-1, randomly selected peptide used as inert comparison] | 1 | – | – | 3 | – |
| HHPWTHHQRWS [pCAP-20] | – | 4 | – | 4 | – |
| YRRLLIGMMWRRRRRRRRR [pCAP-68] | – | 5 | – | 3 | – |
| WNHHHSTPHPAHRRRRRR [pCAP-97R, pCAP-97 with poly arginine tail] | – | 3 | significant increase | 5 | 4 |
| HANLHHT [pCAP-87] | 2 | – | – | 2 | – |
| LRCLLLLIGRVG [pCAP-24] | 2 | 2 | – | – | – |
| IRGRIIRRRRRRRRR [pCAP-54R, pCAP-54 with poly arginine tail] | 2 | – | – | – | 4 |
| IRGRIIR [pCAP-54] | 2 | – | significant increase | – | 4 |
| LHSKTLVL [pCAP-17] | 2 | – | – | – | – |
| IRILMFLIGCGRRRRRRRRR [pCAP-23R, pCAP-23 with poly arginine tail] | 1 | – | – | – | 2 |
| IRILMFLIGCGR [pCAP-23] | 2 | – | – | – | – |
| SFILFIRRGRLG [pCAP-60] | 1 | 2 | – | – | – |
| myr-PRVLPSPHTIHPSQYP [pCAP-229, myristoylated peptide, similarity to HIPK2] | – | 2 | – | 3 | 3 |
| myr-RRKHNKHRPEPDSDER [pCAP-221] | 3 | 3 | – | 4 | 6 |
| YPTQGHLR [pCAP-36] | – | 3 | – | – | 4 |
| myr-RRIRDPRILLLHFD [pCAP-325] | 3 | 3 | – | – | 6 |
| SFILFIRRGRLGRRRRRRRRR [pCAP-60R, pCAP-60 with poly arginine tail] | 2 | 3 | significant increase | – | 2 |
| myr-RRLIVRILKLPNPPER [pCAP-242] | 4 | – | – | 4 | 4 |
| WNHHHSTPHPAH [pCAP-97] | – | 3 | – | 5 | 4 |
| HSSHHHPVHSWN [pCAP-83] | – | 2 | – | – | 3 |
